Reference: paper PMC7144209, “Design, synthesis and anticancer activity of naphthoquinone derivatives” (Journal of Enzyme Inhibition and Medicinal Chemistry, 2020)

What was measured:
U87 = test: MTT cell viability assay, U87 cells; type: cell-based; conditions: Homo sapiens, U-87 MG, 48 h, n = 3
Protocol: (§1) MGC-803, SGC-7901, U87 and SMMC-7721 cell lines were cultured in DMEM supplemented with 10% foetal bovine serum, 100 IU/mL penicillin/streptomycin. The cells were incubated in an atmosphere containing 5% CO2 at 37 °C.
(§2) MGC-803, SGC-7901, U87 and SMMC-7721 cells were plated in 96-well plate at 7000 per well. Cells were incubated with the different concentrations of the compounds for 48 h. Subsequently, MTT (0.5 mg/mL) were used to test the cell viability, then 150 μL DMSO was added to each well after cells were incubated for 4 h and the absorbance was measured at 492 nm.

SMMC-7721 = test: MTT cell viability assay, SMMC-7721 cells; type: cell-based; conditions: Homo sapiens, 48 h, n = 3
Protocol: as §1, §2

SGC-7901 = test: MTT cell viability assay, SGC-7901 cells; type: cell-based, human; conditions: Homo sapiens, SGC-7901, 48 h, n = 3
Protocol: as §1, §2

MGC-803 = test: MTT cell viability assay, MGC-803 cells; type: cell-based; conditions: Homo sapiens, MGC-803, 48 h, n = 3
Protocol: as §1, §2

L02 = test: MTT cell viability assay, L02 cells; type: cell-based; conditions: Homo sapiens, n = 3
[1] = test system: SGC-7901, MGC-803, SMMC-7721, U-87 cell lines; test: MTT anticancer activity, summary in words over the cell line panel; type: cell-based; conditions: MTT assay
Protocol: as §2
Compounds 1–24 were detected for anticancer activities against SGC-7901, MGC-803, SMMC-7721, U-87 cell lines in vitro by the MTT assay, and ADM was used as the positive control. From Table 1, when the phenolic hydroxyls of naphthoquinone moiety were converted to ether, the activity was missing. […] So colony formation assay of this compound (Figure 4) was used to investigate the effect of it on cell proliferation in SGC-7901 cells. The experiment examined the ability for producing colonies after the cells were treated with the cell death agents[35]^,[36].

SMILES	IC50 (U87) [µM]	IC50 (SMMC-7721) [µM]	IC50 (SGC-7901) [µM]	IC50 (MGC-803) [µM]	melting point [°C]	IC50 (L02) [µM]	anticancer activity (in words) [1]
CC(C)=CCC(OC(=O)/C=C\C(=O)N1CCOCC1)C1=CC(=O)c2c(O)ccc(O)c2C1=O (stereo not drawn) [Compound 24, 1-(5,8-dihydroxy-1,4-dioxo-1,4-dihydronaphthalen-2-yl)-4-methylpent-3-en-1-yl (Z)-4-morpholino-4-oxobut-2-enoate]	20.6 ± 0.6	50.1 ± 0.8	38.5 ± 0.7	40.8 ± 1.9	104	> 100	
COc1ccc(OC)c2c1C(=O)C=C(C(O)CC=C(C)C)C2=O (stereo not drawn) [Compound 1, 2-(1-hydroxy-4-methylpent-3-en-1-yl)-5,8-dimethoxynaphthalene-1,4-dione]	> 100	> 100	> 100	> 100	94.3	> 100	
CCN(CC)C(=O)CCC(=O)OC(CC=C(C)C)C1=CC(=O)c2c(O)ccc(O)c2C1=O (stereo not drawn) [Compound 22, 1-(5,8-dihydroxy-1,4-dioxo-1,4-dihydronaphthalen-2-yl)-4-methylpent-3-en-1-yl 4-(diethylamino)-4-oxobutanoate]	40.7 ± 4.7	46.5 ± 1.7	19.8 ± 1.8	9.4 ± 0.4	77	> 50	
CC(C)=CCC(OC(=O)CCC(=O)Nc1ccc(OC(F)(F)F)cc1)C1=CC(=O)c2c(O)ccc(O)c2C1=O (stereo not drawn) [Compound 13, 1-(5,8-dihydroxy-1,4-dioxo-1,4-dihydronaphthalen-2-yl)-4-methylpent-3-en-1-yl-4-oxo-4-((4-(trifluoromethoxy)phenyl)amino)butanoate]	3.46 ± 0.31	16.9 ± 2.2	7.8 ± 3.7	10.2 ± 2.9		15.8 ± 1.1	good activity
CC(C)=CCC(OC(=O)COc1ccc(Cl)cc1)C1=CC(=O)c2c(O)ccc(O)c2C1=O (stereo not drawn) [Compound 6, 1-(5,8-dihydroxy-1,4-dioxo-1,4-dihydronaphthalen-2-yl)-4-methylpent-3-en-1-yl-2-(4-chlorophenoxy)acetate]	> 100	> 100	> 100	> 100	102	> 100	
CC(C)=CCC(OC(=O)C=Cc1ccccc1)C1=CC(=O)c2c(O)ccc(O)c2C1=O (stereo not drawn) [Compound 4, 1-(5,8-dihydroxy-1,4-dioxo-1,4-dihydronaphthalen-2-yl)-4-methylpent-3-en-1-yl cinnamate]	65.7 ± 2.7		75.1 ± 0.4	> 100	85	> 100	
CCCCCCN(CCCCCC)C(=O)CCC(=O)OC(CC=C(C)C)C1=CC(=O)c2c(O)ccc(O)c2C1=O (stereo not drawn) [Compound 23, 1-(5,8-dihydroxy-1,4-dioxo-1,4-dihydronaphthalen-2-yl)-4-methylpent-3-en-1-yl 4-(dihexylamino)-4-oxobutanoate]	> 100	> 100	> 100	> 100		> 100	
CC(C)=CCC(O)C1=CC(=O)c2c(OCc3ccccc3)ccc(OCc3ccccc3)c2C1=O (stereo not drawn) [Compound 2, 5,8-bis(benzyloxy)-2-(1-hydroxy-4-methylpent-3-en-1-yl)naphthalene-1,4-dione]	> 100	> 100	> 100	> 100	60	> 100	
COc1ccccc1NC(=O)CCC(=O)OC(CC=C(C)C)C1=CC(=O)c2c(O)ccc(O)c2C1=O (stereo not drawn) [Compound 15, 1-(5,8-dihydroxy-1,4-dioxo-1,4-dihydronaphthalen-2-yl)-4-methylpent-3-en-1-yl-4-((2-methoxyphenyl)amino)-4-oxobutanoate]	> 100	> 100	> 100	> 100	113	> 100	
CC(C)=CCC(OC(=O)CCc1ccccc1)C1=CC(=O)c2c(O)ccc(O)c2C1=O (stereo not drawn) [Compound 3, 1-(5,8-dihydroxy-1,4-dioxo-1,4-dihydronaphthalen-2-yl)-4-methylpent-3-en-1-yl-3-phenylpropanoate]	8 ± 0.85	15.6 ± 3.3	10.6 ± 4.3	4.5 ± 1.1	60	13.6 ± 1.5	
CC(C)=CCC(OC(=O)CCC(=O)N1CCCCC1)C1=CC(=O)c2c(O)ccc(O)c2C1=O (stereo not drawn) [Compound 7, 1-(5,8-dihydroxy-1,4-dioxo-1,4-dihydronaphthalen-2-yl)-4-methylpent-3-en-1-yl-4-oxo-4-(piperidin-1-yl)butanoate]	9.68 ± 2.3	14.4 ± 1.5	33.6 ± 2.1	9.7 ± 2.3	120	36.8 ± 4.1	
CC(C)=CCC(OC(=O)CCC(=O)N1CCOCC1)C1=CC(=O)c2c(O)ccc(O)c2C1=O (stereo not drawn) [Compound 8, 1-(5,8-dihydroxy-1,4-dioxo-1,4-dihydronaphthalen-2-yl)-4-methylpent-3-en-1-yl 4-morpholino-4-oxobutanoate]	10 ± 1.6	16.7 ± 1.8	20 ± 3.9	10.4 ± 0.7	105	> 50	
COc1cccc2c1C(=O)c1c(O)c3c(c(O)c1C2=O)C[C@@](O)(C(=O)CO)C[C@@H]3O[C@H]1C[C@H](N)[C@H](O)[C@H](C)O1 [ADM, Adriamycin, reference compound]	0.57 ± 0.32	0.46 ± 0.63	0.72 ± 0.12	0.48 ± 0.06		> 100	
COc1cc(/C=C/CC(=O)OC(CC=C(C)C)C2=CC(=O)c3c(O)ccc(O)c3C2=O)cc(OC)c1OC (stereo not drawn) [Compound 5, 1-(5,8-dihydroxy-1,4-dioxo-1,4-dihydronaphthalen-2-yl)-4-methylpent-3-en-1-yl (E)-4-(3,4,5-trimethoxyphenyl)but-3-enoate]	> 100	> 100	> 100	> 100	54	> 100	

Second part, led by results:

IC50 (U87) [µM]	IC50 (SMMC-7721) [µM]	IC50 (SGC-7901) [µM]	IC50 (MGC-803) [µM]	melting point [°C]	SMILES	IC50 (L02) [µM]	anticancer activity (in words) [1]
12.3 ± 2.8	12.4 ± 2.6	11.1 ± 1.2	7.9 ± 1.8	115	COc1ccc(NC(=O)CCC(=O)OC(CC=C(C)C)C2=CC(=O)c3c(O)ccc(O)c3C2=O)cc1 (stereo not drawn) [Compound 10, 1-(5,8-dihydroxy-1,4-dioxo-1,4-dihydronaphthalen-2-yl)-4-methylpent-3-en-1-yl-4-((4-methoxyphenyl)amino)-4-oxobutanoate]	11.9 ± 0.6	
> 100	14.8 ± 0.1	10.7 ± 1.8	10.2 ± 1.3	105	CC(C)=CCC(OC(=O)CCC(=O)Nc1ccc(Br)cc1)C1=CC(=O)c2c(O)ccc(O)c2C1=O (stereo not drawn) [Compound 14, 1-(5,8-dihydroxy-1,4-dioxo-1,4-dihydronaphthalen-2-yl)-4-methylpent-3-en-1-yl-4-((4-bromophenyl)amino)-4-oxobutanoate]	16.2 ± 1.7	
3.8 ± 1.7	15.9 ± 0.2	20.8 ± 0.5	6.7 ± 2.4		CC(C)=CCC(OC(=O)CCC(=O)NCCc1cccc(Cl)c1)C1=CC(=O)c2c(O)ccc(O)c2C1=O (stereo not drawn) [Compound 17, 1-(5,8-dihydroxy-1,4-dioxo-1,4-dihydronaphthalen-2-yl)-4-methylpent-3-en-1-yl-4-((3-chlorophenethyl)amino)-4-oxobutanoate]	11.4 ± 1.8	good activity
9.1 ± 2.5	17.9 ± 1	7.6 ± 2.3	5.7 ± 2.4	134	CC(C)=CCC(OC(=O)CCC(=O)NCCc1ccc(Br)cc1)C1=CC(=O)c2c(O)ccc(O)c2C1=O (stereo not drawn) [Compound 19, 1-(5,8-dihydroxy-1,4-dioxo-1,4-dihydronaphthalen-2-yl)-4-methylpent-3-en-1-yl-4-((4-bromophenethyl)amino)-4-oxobutanoate]	8.5 ± 0.4	
7.7 ± 4.4	17.9 ± 1.6	23.7 ± 0.5	6.6 ± 4.7	97.8	CC(C)=CCC(OC(=O)CCC(=O)NCCc1ccccc1Cl)C1=CC(=O)c2c(O)ccc(O)c2C1=O (stereo not drawn) [Compound 18, 1-(5,8-dihydroxy-1,4-dioxo-1,4-dihydronaphthalen-2-yl)-4-methylpent-3-en-1-yl-4-((2-chlorophenethyl)amino)-4-oxobutanoate]	20.2 ± 2	
6.1 ± 0.6	15.4 ± 0.4	14.8 ± 1.6	6.9 ± 3.9	91	CC(C)=CCC(OC(=O)CCC(=O)NCCc1ccccc1F)C1=CC(=O)c2c(O)ccc(O)c2C1=O (stereo not drawn) [Compound 21, 1-(5,8-dihydroxy-1,4-dioxo-1,4-dihydronaphthalen-2-yl)-4-methylpent-3-en-1-yl 4-((2-fluorophenethyl)amino)-4-oxobutanoate]	16 ± 2.2	
5.41 ± 0.67	24.3 ± 1.7	5.6 ± 2.6	5.9 ± 2.6	127	CC(C)=CCC(OC(=O)CCC(=O)Nc1cccc2ccccc12)C1=CC(=O)c2c(O)ccc(O)c2C1=O (stereo not drawn) [Compound 16, 1-(5,8-dihydroxy-1,4-dioxo-1,4-dihydronaphthalen-2-yl)-4-methylpent-3-en-1-yl-4-(naphthalen-1-ylamino)-4-oxobutanoate]	13 ± 2.4	
